Assay results from patent publication US8883826B2, “Alkynyl derivatives as modulators of metabotropic glutamate receptors” (Addex Pharma SA, priority 2004, dated 2014).

molecular target: T1, mGluR5 (Rattus norvegicus, UniProt P31424); test: mGluR5 binding assay ([3H]-MPEP radioligand competition); details: competition with 3 nM [3H]-MPEP, rat brain cortical membranes, 1 h at 4 °C; mean of at least three independent experiments in duplicate
T1 construct: tissue Charles River Laboratories; host or cells: rat brain cortex membranes (Sprague-Dawley)
T1 sequence (P31424 21-1203): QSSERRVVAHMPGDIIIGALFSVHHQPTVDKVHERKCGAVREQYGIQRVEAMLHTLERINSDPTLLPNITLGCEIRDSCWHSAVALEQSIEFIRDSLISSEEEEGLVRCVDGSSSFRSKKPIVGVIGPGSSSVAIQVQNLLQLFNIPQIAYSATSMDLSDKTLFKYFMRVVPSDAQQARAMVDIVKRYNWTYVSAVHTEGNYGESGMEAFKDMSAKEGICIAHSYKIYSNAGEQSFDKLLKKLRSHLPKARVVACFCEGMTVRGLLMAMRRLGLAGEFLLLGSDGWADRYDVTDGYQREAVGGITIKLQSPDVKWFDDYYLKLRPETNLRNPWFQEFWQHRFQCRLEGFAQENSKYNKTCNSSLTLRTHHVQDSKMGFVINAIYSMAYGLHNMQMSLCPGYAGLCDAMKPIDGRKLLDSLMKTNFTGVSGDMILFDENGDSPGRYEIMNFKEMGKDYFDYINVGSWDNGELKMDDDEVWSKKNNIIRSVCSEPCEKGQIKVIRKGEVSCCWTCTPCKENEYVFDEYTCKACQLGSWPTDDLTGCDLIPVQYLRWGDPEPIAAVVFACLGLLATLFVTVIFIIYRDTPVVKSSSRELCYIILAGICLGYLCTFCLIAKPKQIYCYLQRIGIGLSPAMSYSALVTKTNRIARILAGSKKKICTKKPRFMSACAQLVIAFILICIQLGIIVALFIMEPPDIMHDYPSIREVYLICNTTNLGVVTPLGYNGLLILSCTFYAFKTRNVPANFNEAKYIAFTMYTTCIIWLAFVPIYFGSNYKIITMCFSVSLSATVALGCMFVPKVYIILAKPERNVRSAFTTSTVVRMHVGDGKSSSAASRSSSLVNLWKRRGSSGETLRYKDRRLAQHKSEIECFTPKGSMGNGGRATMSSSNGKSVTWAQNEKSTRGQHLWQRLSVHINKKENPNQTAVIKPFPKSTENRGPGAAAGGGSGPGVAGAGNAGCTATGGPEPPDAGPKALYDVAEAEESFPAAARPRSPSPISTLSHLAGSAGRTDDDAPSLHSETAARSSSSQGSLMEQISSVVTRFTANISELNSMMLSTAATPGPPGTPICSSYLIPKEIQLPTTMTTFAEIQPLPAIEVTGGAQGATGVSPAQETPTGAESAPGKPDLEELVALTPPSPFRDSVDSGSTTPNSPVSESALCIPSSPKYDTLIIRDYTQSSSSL
From the text: Activity of compounds of the invention was examined following a radioligand binding technique using whole rat brain and tritiated 2-methyl-6-(phenylethynyl)-pyridine ([^3H]-MPEP) as a ligand following similar methods than those described in F. Gasparini et al. Bioorg. Med. Chem. Lett. 2002, 12, 407-409 and in J. F. Anderson et al. J. Pharmacol. Exp. Ther. 2002, 303, 3, 1044-1051.
Cortices were dissected out from brains of 200-300 g Sprague-Dawley rats (Charles River Laboratories, L'Arbresle, France). Tissues were homogenized in 10 volumes (vol/wt) of ice-cold 50 mM Hepes-NaOH (pH 7.4) using a Polytron disrupter (Kinematica AG, Luzern, Switzerland) and centrifuged for 30 min at 40,000 g. (4° C.). The supernatant was discarded and the pellet washed twice by resuspension in 10 volumes 50 mM HEPES-NaOH. Membranes were then collected by centrifugation and washed before final resuspension in 10 volumes of 20 mM HEPES-NaOH, pH 7.4. Protein concentration was determined by the Bradford method (Bio-Rad protein assay, Reinach, Switzerland) with bovine serum albumin as standard.
[^3H]-MPEP Binding Experiments:
Membranes were thawed and resuspended in binding buffer containing 20 mM HEPES-NaOH, 3 mM MgCl2, 3 mM CaCl2, 100 mM NaCl, pH 7.4. Competition studies were carried out by incubating for 1 h at 4° C.: 3 nM [^3H]-MPEP (39 Ci/mmol, Tocris, Cookson Ltd, Bristol, U.K.), 50 μg membrane and a concentration range of 0.003 nM-30 μM of compounds, for a total reaction volume of 300 μl. The non-specific binding was defined using 30 μM MPEP. Reaction was terminated by rapid filtration over glass-fiber filter plates (Unifilter 96-well GF/B filter plates, Perkin-Elmer, Schwerzenbach, Switzerland) using 4×400 μl ice cold buffer using cell harvester (Filtermate, Perkin-Elmer, Downers Grove, USA). Radioactivity was determined by liquid scintillation spectrometry using a 96-well plate reader (TopCount, Perkin-Elmer, Downers Grove, USA).
The inhibition curves were generated using the Prism GraphPad program (Graph Pad Software Inc, San Diego, USA). IC50 determinations were made from data obtained from 8 point-concentration response curves using a non linear regression analysis.
The table below represents the mean of IC50 obtained from at least three independent experiments of selected molecules performed in duplicate.

IC50 [µM] | Compound
< 10 | CCc1ccccc1-c1noc(CCC#Cc2ccccn2)n1 [Example 2, 2-(4-(3-(2-Ethylphenyl)-1,2,4-oxadiazol-5-yl)but-1-ynyl)pyridine]
< 10 | O=C1c2ccccc2C(=O)N1CCC#Cc1ccccn1 [Example 3, 2-(4-(Pyridin-2-yl)but-3-ynyl)isoindoline-1,3-dione]
< 10 | O=c1c2ccccc2cnn1CCC#Cc1ccccn1 [Example 4, 2-(4-(Pyridin-2-yl)but-3-ynyl)phthalazin-1(2H)-one]
< 10 | C(#Cc1ccc2ccccc2n1)CCc1ccccc1 [Example 5, 2-(4-Phenylbut-1-ynyl)quinoline]
< 0.5 | C(#Cc1nc2ccccc2o1)CCc1ccccc1 [Example 7, 2-(4-Phenylbut-1-ynyl)benzo[d]oxazole]
< 10 | Fc1ccc(-c2noc(CCC#Cc3ccccn3)n2)cc1 [Example 9, 2-(4-(3-(4-Fluorophenyl)-1,2,4-oxadiazol-5-yl)but-1-ynyl)pyridine]
< 10 | C(#Cc1ccccn1)CCc1nc(-c2ccccc2)no1 [Example 10]
< 0.5 | CN(C(=O)CCC#Cc1ccccn1)c1ccc(F)cc1 [Example 13, N-(4-Fluorophenyl)-N-methyl-5-(pyridin-2-yl)pent-4-ynamide]
< 10 | C(#Cc1ccccn1)CCc1csc(-c2ccccc2)n1 [Example 14, 2-(4-(2-Phenylthiazol-4-yl)but-1-ynyl)pyridine]
< 0.5 | Cc1ccccc1-c1noc(CCC#Cc2ccccn2)n1 [Example 15]
< 10 | C(#Cc1ccccn1)CCc1nc(Cc2ccccc2)no1 [Example 16, 2-(4-(3-Benzyl-1,2,4-oxadiazol-5-yl)but-1-ynyl)pyridine]
< 10 | Fc1ccccc1Cc1noc(CCC#Cc2ccccn2)n1 [Example 17, 2-(4-(3-(2-Fluorobenzyl)-1,2,4-oxadiazol-5-yl)but-1-ynyl)pyridine]
< 10 | Cc1ccccc1Cc1noc(CCC#Cc2ccccn2)n1 [Example 18, 2-(4-(3-(2-Methylbenzyl)-1,2,4-oxadiazol-5-yl)but-1-ynyl)pyridine]
< 10 | Fc1ccc(Cc2noc(CCC#Cc3ccccn3)n2)cc1 [Example 19, 2-(4-(3-(4-Fluorobenzyl)-1,2,4-oxadiazol-5-yl)but-1-ynyl)pyridine]
< 10 | COc1ccc(Cc2noc(CCC#Cc3ccccn3)n2)cc1 [Example 20, 2-(4-(3-(4-Methoxybenzyl)-1,2,4-oxadiazol-5-yl)but-1-ynyl)pyridine]
< 10 | CC(C)c1noc(CCC#Cc2ccccn2)n1 [Example 21, 2-(4-(3-Isopropyl-1,2,4-oxadiazol-5-yl)but-1-ynyl)pyridine]
< 10 | CCCCc1noc(CCC#Cc2ccccn2)n1 [Example 22, 2-(4-(3-Butyl-1,2,4-oxadiazol-5-yl)but-1-ynyl)pyridine]
< 10 | Fc1cccc(Cc2noc(CCC#Cc3ccccn3)n2)c1 [Example 23, 2-(4-(3-(3-Fluorobenzyl)-1,2,4-oxadiazol-5-yl)but-1-ynyl)pyridine]
< 10 | COc1cccc(Cc2noc(CCC#Cc3ccccn3)n2)c1 [Example 24, 2-(4-(3-(3-Methoxybenzyl)-1,2,4-oxadiazol-5-yl)but-1-ynyl)pyridine]
< 0.5 | Fc1ccccc1-c1noc(CCC#Cc2ccccn2)n1 [Example 25, 2-(4-(3-(2-Fluorophenyl)-1,2,4-oxadiazol-5-yl)but-1-ynyl)pyridine]
< 10 | Fc1cccc(-c2noc(CCC#Cc3ccccn3)n2)c1 [Example 26, 2-(4-(3-(3-Fluorophenyl)-1,2,4-oxadiazol-5-yl)but-1-ynyl)pyridine]
< 10 | Cc1ccc2oc(CCC#Cc3ccccn3)nc2c1 [Example 28, 5-Methyl-(2-(4-pyridin-2-yl)but-3-ynyl)benzo[d]oxazole]
< 10 | Cc1ccc2nc(CCC#Cc3ccccn3)oc2c1 [Example 29, 6-Methyl-(2-(4-pyridin-2-yl)but-3-ynyl)benzo[d]oxazole]

IC50 [µM] | Compound
< 10 | Cc1cccc2oc(CCC#Cc3ccccn3)nc12 [Example 30, 4-Methyl-(2-(4-pyridin-2-yl)but-3-ynyl)benzo[d]oxazole]
< 0.05 | Cc1nc(C#CCCc2nc3ccccc3o2)cs1 [Example 31, 2-(4-(2-Methylthiazol-4-yl)but-3-ynyl)benzo[d]oxazole]
< 0.05 | C(#Cc1ccccn1)CCc1cn2ccccc2n1 [Example 33, 2-(4-(Pyridin-2-yl)but-3-ynyl)-imidazo[1,2-a]pyridine]
< 10 | COc1ccccc1-c1noc(CCC#Cc2ccccn2)n1 [Example 40, 2-(4-(3-(2-Methoxyphenyl)-1,2,4-oxadiazol-5-yl)but-1-ynyl)pyridine]
< 10 | COc1cccc(-c2noc(CCC#Cc3ccccn3)n2)c1 [Example 41, 2-(4-(3-(3-Methoxyphenyl)-1,2,4-oxadiazol-5-yl)but-1-ynyl)pyridine]
< 10 | COc1ccc(-c2noc(CCC#Cc3ccccn3)n2)cc1 [Example 42, 2-(4-(3-(4-Methoxyphenyl)-1,2,4-oxadiazol-5-yl)but-1-ynyl)pyridine]
< 10 | Cc1cccc(-c2noc(CCC#Cc3ccccn3)n2)c1 [Example 43, 2-(4-(3-m-Tolyl-1,2,4-oxadiazol-5-yl)but-1-ynyl)pyridine]
< 10 | Cc1ccc(-c2noc(CCC#Cc3ccccn3)n2)cc1 [Example 44, 2-(4-(3-p-Tolyl-1,2,4-oxadiazol-5-yl)but-1-ynyl)pyridine]
< 10 | Clc1ccccc1-c1noc(CCC#Cc2ccccn2)n1 [Example 45, 2-(4-(3-(2-Chlorophenyl)-1,2,4-oxadiazol-5-yl)but-1-ynyl)pyridine]
< 10 | Clc1cccc(-c2noc(CCC#Cc3ccccn3)n2)c1 [Example 46, 2-(4-(3-(3-Chlorophenyl)-1,2,4-oxadiazol-5-yl)but-1-ynyl)pyridine]
< 0.5 | Cc1cccc(C)c1-c1noc(CCC#Cc2ccccn2)n1 [Example 48, 2-(4-(3-(2,6-Dimethylphenyl)-1,2,4-oxadiazol-5-yl)but-1-ynyl)pyridine]
< 10 | FC(F)(F)c1ccccc1-c1noc(CCC#Cc2ccccn2)n1 [Example 49]
< 10 | C(#Cc1ccccn1)CCc1nc(-c2cccc3ccccc23)no1 [Example 50, 2-(4-(3-(Naphthalen-1-yl)-1,2,4-oxadiazol-5-yl)but-1-ynyl)pyridine]
< 10 | Cc1cccc(-c2noc(CCC#Cc3ccccn3)n2)c1C [Example 52, 2-(4-(3-(2,3-Dimethylphenyl)-1,2,4-oxadiazol-5-yl)but-1-ynyl)pyridine]
< 10 | Clc1ccc(Cl)c(-c2noc(CCC#Cc3ccccn3)n2)c1 [Example 53, 2-(4-(3-(2,5-Dichlorophenyl)-1,2,4-oxadiazol-5-yl)but-1-ynyl)pyridine]
< 10 | Cc1ccc(C)c(-c2noc(CCC#Cc3ccccn3)n2)c1 [Example 54, 2-(4-(3-(2,5-Dimethylphenyl)-1,2,4-oxadiazol-5-yl)but-1-ynyl)pyridine]
< 10 | Clc1cccc(Cl)c1-c1noc(CCC#Cc2ccccn2)n1 [Example 55, 2-(4-(3-(2,6-Dichlorophenyl)-1,2,4-oxadiazol-5-yl)but-1-ynyl)pyridine]
< 10 | Clc1cccc(-c2noc(CCC#Cc3ccccn3)n2)c1Cl [Example 56, 2-(4-(3-(2,3-Dichlorophenyl)-1,2,4-oxadiazol-5-yl)but-1-ynyl)pyridine]
< 10 | Cc1cccc(Cl)c1-c1noc(CCC#Cc2ccccn2)n1 [Example 58, 2-(4-(3-(2-Chloro-6-methylphenyl)-1,2,4-oxadiazol-5-yl)but-1-ynyl)pyridine]
< 10 | FC(F)(F)Oc1ccccc1-c1noc(CCC#Cc2ccccn2)n1 [Example 61, 2-(4-(3-(2-(Trifluoromethoxy)phenyl)-1,2,4-oxadiazol-5-yl)but-1-ynyl)pyridine]
< 0.05 | Fc1ccc2nc(CCC#Cc3ccccn3)oc2c1 [Example 62, 6-Fluoro-2-(4-(pyridin-2-yl)but-3-ynyl)benzo[d]oxazole]
< 0.05 | Clc1cccc2nc(CCC#Cc3ccccn3)oc12 [Example 63, 7-Chloro-2-(4-(pyridin-2-yl)but-3-ynyl)benzo[d]oxazole]

Compound | IC50 [µM]
2-(4-(3-Methyl-4-phenyl-1H-pyrazol-1-yl)but-1-ynyl)pyridine and 2-(4-(5-methyl-4-phenyl-1H-pyrazol-1-yl)but-1-ynyl)pyridine [Example 174] | < 10
Cc1nc(C#CCCc2ccccc2)cs1 [Example 1, 2-Methyl-(4-(4-phenyl)but-1-ynyl)thiazole] | < 0.5
